Measured values from the NIST ThermoML archive (doi:10.1021/je5010214).
± gives the expanded uncertainty stated by the source.

Settings: Liquid, Vibrating tube method

CCCCCCC [heptane]
Settings	mass density [kg/m3]
323.15 K, 34081 kPa	690.434 ± 0.95
323.15 K, 35113 kPa	691.624 ± 0.95
323.15 K, 37953 kPa	693.659 ± 0.97
323.15 K, 42011 kPa	696.516 ± 0.99
323.15 K, 48025 kPa	700.814 ± 1
323.15 K, 49934 kPa	702.105 ± 1
323.15 K, 52114 kPa	703.681 ± 1.1
323.15 K, 54964 kPa	705.509 ± 1.1
323.15 K, 58045 kPa	707.475 ± 1.1
323.15 K, 60050 kPa	708.827 ± 1.1
323.15 K, 62131 kPa	710.008 ± 1.1
323.15 K, 64999 kPa	711.842 ± 1.1
323.16 K, 920.7 kPa	659.343 ± 0.82
323.16 K, 27958 kPa	685.975 ± 0.92
323.16 K, 30055 kPa	687.083 ± 0.93
323.16 K, 33067 kPa	689.946 ± 0.94
323.16 K, 40047 kPa	695.097 ± 0.98
323.16 K, 44937 kPa	698.783 ± 1
323.16 K, 66131 kPa	712.551 ± 1.1
328.15 K, 100.8 kPa	653.868 ± 0.81
328.15 K, 289.9 kPa	654.182 ± 0.81
328.15 K, 897.5 kPa	654.815 ± 0.82
328.15 K, 994.1 kPa	655.012 ± 0.82
328.15 K, 1988.8 kPa	656.162 ± 0.82
328.15 K, 2996.7 kPa	657.408 ± 0.82
328.15 K, 5013.4 kPa	659.794 ± 0.83
328.15 K, 6974.9 kPa	662.023 ± 0.83
328.15 K, 9017 kPa	664.204 ± 0.84
328.15 K, 10040 kPa	665.257 ± 0.84
328.15 K, 24924 kPa	679.489 ± 0.91
328.15 K, 27979 kPa	682.036 ± 0.92
328.15 K, 29958 kPa	683.395 ± 0.93
328.15 K, 32060 kPa	685.102 ± 0.94
328.15 K, 33066 kPa	685.969 ± 0.95
328.15 K, 33107 kPa	685.992 ± 0.95
328.15 K, 34013 kPa	687.01 ± 0.95
328.15 K, 35030 kPa	687.796 ± 0.96
328.15 K, 38010 kPa	690.025 ± 0.97
328.15 K, 39969 kPa	691.415 ± 0.98
328.15 K, 41959 kPa	692.865 ± 1
328.15 K, 44953 kPa	695.094 ± 1
328.15 K, 47978 kPa	697.371 ± 1
328.15 K, 49926 kPa	698.804 ± 1
328.15 K, 51997 kPa	700.259 ± 1.1
328.15 K, 54947 kPa	702.284 ± 1.1
328.15 K, 57939 kPa	704.221 ± 1.1
328.15 K, 59991 kPa	705.64 ± 1.1
328.15 K, 61982 kPa	707.057 ± 1.1
328.15 K, 65032 kPa	708.835 ± 1.1
328.15 K, 66046 kPa	709.499 ± 1.1
328.16 K, 501 kPa	654.211 ± 0.82
328.16 K, 12210 kPa	667.562 ± 0.85
328.16 K, 15055 kPa	670.204 ± 0.86
328.16 K, 18061 kPa	673.216 ± 0.88
328.16 K, 20279 kPa	675.247 ± 0.89
328.16 K, 22013 kPa	676.775 ± 0.89
333.15 K, 100.4 kPa	649.302 ± 0.81
333.15 K, 532.6 kPa	649.653 ± 0.82
333.15 K, 897.8 kPa	650.259 ± 0.82
333.15 K, 1987.2 kPa	651.687 ± 0.82
333.15 K, 3023.4 kPa	653.063 ± 0.82
333.15 K, 4997.4 kPa	655.338 ± 0.83
333.15 K, 7002.4 kPa	657.844 ± 0.83
333.15 K, 9032 kPa	660.047 ± 0.84
333.15 K, 10210 kPa	661.268 ± 0.84
333.15 K, 15008 kPa	666.206 ± 0.86
333.15 K, 22034 kPa	672.882 ± 0.89
333.15 K, 28040 kPa	678.188 ± 0.92
333.15 K, 30016 kPa	679.579 ± 0.93
333.15 K, 32067 kPa	681.185 ± 0.94
333.15 K, 32977 kPa	681.946 ± 0.95
333.15 K, 34086 kPa	683.474 ± 0.96
333.15 K, 35075 kPa	684.235 ± 0.96
333.15 K, 37894 kPa	686.324 ± 0.98
333.15 K, 40111 kPa	687.848 ± 0.99
333.15 K, 41947 kPa	689.191 ± 1
333.15 K, 44974 kPa	691.567 ± 1
333.15 K, 47936 kPa	693.899 ± 1
333.15 K, 49920 kPa	695.372 ± 1
333.15 K, 51953 kPa	696.893 ± 1.1
333.15 K, 54876 kPa	699.008 ± 1.1
333.15 K, 58057 kPa	700.988 ± 1.1
333.15 K, 59993 kPa	702.482 ± 1.1
333.15 K, 62049 kPa	703.927 ± 1.1
333.15 K, 64970 kPa	705.65 ± 1.1
333.15 K, 66005 kPa	706.481 ± 1.1
333.16 K, 303.5 kPa	649.622 ± 0.81
333.16 K, 1003 kPa	650.554 ± 0.82
333.16 K, 12011 kPa	663.322 ± 0.85
333.16 K, 17992 kPa	669.217 ± 0.88
333.16 K, 20036 kPa	671.108 ± 0.89
333.16 K, 25027 kPa	675.678 ± 0.91
333.16 K, 33073 kPa	682.004 ± 0.95
338.15 K, 100.4 kPa	644.915 ± 0.81
338.15 K, 309.8 kPa	645.161 ± 0.82
338.15 K, 561.6 kPa	645.341 ± 0.82
338.15 K, 898.5 kPa	645.924 ± 0.82
338.15 K, 1014.1 kPa	646.212 ± 0.82
338.15 K, 2936.1 kPa	648.694 ± 0.82
338.15 K, 5018.6 kPa	651.205 ± 0.83
338.15 K, 10034 kPa	657.126 ± 0.84
338.15 K, 14885 kPa	662.203 ± 0.86
338.15 K, 17956 kPa	665.481 ± 0.88
338.15 K, 19927 kPa	667.369 ± 0.89
338.15 K, 22041 kPa	669.319 ± 0.9
338.15 K, 25026 kPa	672.169 ± 0.91
338.15 K, 29994 kPa	676.134 ± 0.94
338.15 K, 32882 kPa	678.515 ± 0.95
338.15 K, 33937 kPa	679.921 ± 0.96
338.15 K, 35012 kPa	680.879 ± 0.96
338.15 K, 39987 kPa	684.582 ± 0.99
338.15 K, 41990 kPa	686.092 ± 1
338.15 K, 44978 kPa	688.463 ± 1
338.15 K, 47971 kPa	690.744 ± 1
338.15 K, 49999 kPa	692.38 ± 1.1
338.15 K, 52127 kPa	693.976 ± 1.1
338.15 K, 57940 kPa	697.82 ± 1.1
338.15 K, 60014 kPa	699.459 ± 1.1
338.15 K, 65012 kPa	702.688 ± 1.1
338.15 K, 66057 kPa	703.55 ± 1.1
338.16 K, 2000.2 kPa	647.409 ± 0.82
338.16 K, 6917.3 kPa	653.552 ± 0.83
338.16 K, 9046.9 kPa	656.063 ± 0.84
338.16 K, 11959 kPa	659.361 ± 0.85
338.16 K, 27976 kPa	674.704 ± 0.93
338.16 K, 31949 kPa	677.899 ± 0.95
338.16 K, 32882 kPa	678.499 ± 0.95
338.16 K, 37962 kPa	683.24 ± 0.98
338.16 K, 54992 kPa	696.066 ± 1.1
338.16 K, 62074 kPa	700.918 ± 1.1
343.15 K, 105.1 kPa	640.758 ± 0.82
343.15 K, 297.3 kPa	640.918 ± 0.82
343.15 K, 520.3 kPa	641.218 ± 0.82
343.15 K, 911.7 kPa	641.765 ± 0.82
343.15 K, 1017.7 kPa	641.938 ± 0.82
343.15 K, 1994.6 kPa	643.242 ± 0.82
343.15 K, 2968.3 kPa	644.553 ± 0.82
343.15 K, 4994.8 kPa	647.152 ± 0.83
343.15 K, 6976.6 kPa	649.726 ± 0.83
343.15 K, 9002.6 kPa	652.141 ± 0.84
343.15 K, 10060 kPa	653.267 ± 0.85
343.15 K, 12024 kPa	655.625 ± 0.85
343.15 K, 14928 kPa	658.769 ± 0.87
343.15 K, 17975 kPa	661.975 ± 0.88
343.15 K, 19985 kPa	664 ± 0.89
343.15 K, 22033 kPa	666.001 ± 0.9
343.15 K, 25090 kPa	668.93 ± 0.91
343.15 K, 28045 kPa	671.724 ± 0.93
343.15 K, 30082 kPa	673.379 ± 0.94
343.15 K, 32170 kPa	675.296 ± 0.95
343.15 K, 33053 kPa	676.043 ± 0.96
343.15 K, 33097 kPa	676.076 ± 0.96
343.15 K, 35030 kPa	677.808 ± 0.97
343.15 K, 37943 kPa	680.185 ± 0.98
343.15 K, 40012 kPa	681.817 ± 0.99
343.15 K, 41972 kPa	683.353 ± 1
343.15 K, 44927 kPa	685.751 ± 1
